The values that follow come from patent US20040152684A1, “Use of antigestagens for inhibiting accelerated endometrial maturation during infertility treatment” (priority 2001, published 2004).

This test relates to endometrium of the superovulated pseudopregnant rabbit. Briefly: Endometrial receptivity in the superovulated pseudopregnant rabbit model. In kind it is in vivo, New Zealand White rabbits. The settings on record: for endometrial maturation (in words): compared with Group 1 controls not subject to ovarian hyperstimulation; for Mc-Phail [x ± SD] (endometrial transformation index, 1 no to 4 high transformation) / Uterine wet weight [x ± SD]: measured at d5 p.hCG; for Uteroglobin ISH [expression in luminal epithelial cells]: uteroglobin mRNA at d5 p.hCG. As for the experimental part:
The effects of a 17α-fluoralkylated progesterone receptor antagonist on endometrial activity was evaluated in the superovulated pseudopregnant rabbit model. The pseudopregnancy of the rabbit has proven to be a model system for the human luteal phase (Beier and Kuhnel, 1973, Hormone Res. 4:1-27; Fischer et al., 1985, Fertilitat 1:101-109. In this species, ovarian stimulation induces an advancement of secretory transformation (Delbos-Winter et al., 1987, Fertilitat 3: 87-93) as well as an enhancement of gland formation.
A total of 25 sexually mature nulliparous New Zealand White rabbits with a body weight of 3.1 to 4.0 kg were used for the analysis. The animals were divided into two control groups (groups 1 and 2) and three treatment groups (groups 3-5), with five animals in each group.
Control group 1 received 75 international units (IU) of human chorionic gonadotropin (hCG) administered intravenously in order to induce pseudopregnancy. The day of hCG-injection was designated as day 0 of pseudopregnancy (d0 p.hCG).
Control group 2 and treatment groups 3, 4, and 5 were gonadotropin-stimulated with 5 IU of the human menopausal gonadotropin (HMG) Pergonal® (Serono Pharma, Unterschleipheim, Germany) for 3 days, by subcutaneous injection, in order to induce multiple follicular growth. Pseudopregnancy was induced by the administration of human chorionic gonadotropin (hCG) as described for control group 1 above.
Treatment groups 3, 4 and 5 also received a single per oral application of a 17α-fluoralkylated progesterone receptor antagonist (Compound A) two days after pseudopregnancy induction with the administration of human chorionic gonadotropin (d2 p.hCG).
Animals in all treatment groups were sacrificed on day 5 following pseudopregnancy induction (d5 p.hCG), and uteri were removed. Relative uterine wet weights were determined (in mg/100 g body weight) and a part of the uterus was snap frozen in liquid nitrogen for determination of uteroglobin expression by in situ hybridization. Uteroglobin expression is known as a highly sensitive parameter for determination of endometrial receptivity (Beier, H. M., 1968, Biochem Biophys. Acta. 160:289-291; Beier, H. M., 1982, in: Beier, H. M. and Karlson, P. (eds.), Proteins and Steroids in Early Pregnancy), and is a marker for secretory activity (Beier, 1976, J. Reprod. Fertil. Suppl. 25:53-69) and differentiation of the endometrial epithelium (Krusche & Beier, 1994, Ann. Anat. 176:23-31). In situ hybridization for detection of uteroglobin expression was conducted as previously described in Krusche & Beier, above. Another piece of the uterus was removed and processed for paraffin histology in order to determine the endometrial transformation status using the McPhail-Index (McPhail M k, 1934, J. Phys. 83:145-156) The McPhail Index reflects different degrees of progestogenic (transforming) activity in the rabbit endometrium:
3. pronounced transformation

Where [1] appears, read: Group 3: HMG + hCG, single per oral 0.1 mg/kg on d2 p.hCG.
[2] abbreviates: Group 4: HMG + hCG, single per oral 1 mg/kg on d2 p.hCG.
The mark [3] stands for this setting: Group 5: HMG + hCG, single per oral 10 mg/kg on d2 p.hCG.

Take `CC(=O)c1ccc([C@H]2C[C@@]3(C)[C@@H](CC[C@@]3(O)C(F)(F)C(F)(F)F)[C@@H]3CCC4=CC(=O)CCC4=C32)cc1` [Compound A, 11β-(4-acetylphenyl)-17β-hydroxy-17α-(1,1,2,2,2-pentafluoroethyl)estra-4,9-dien-3-one]: the “endometrial maturation (in words)” value is “roughly corresponded with that of control animals which were not subject to ovarian hyperstimulation” (0.1 mg/kg (Group 3)), “delayed the timing of maturation beyond that observed in animals which were not subject to hyperovarian stimulation” (1 mg/kg (group 4)) and “delayed the timing of maturation beyond that observed in animals which were not subject to hyperovarian stimulation” (10 mg/kg (group 5)). Further, the “Mc-Phail [x ± SD] (endometrial transformation index, 1 no to 4 high transformation)” value by setting is: under setting [1], 3.0 ± 0.1; under setting [2], 1.5 ± 0.3; under setting [3], 1.1 ± 0.3. The “Uterine wet weight [x ± SD]” value reads like this: under setting [1], 305 ± 48 mg/kg; under setting [2], 227 ± 56 mg/kg; under setting [3], 144 ± 30 mg/kg. The “Uteroglobin ISH [expression in luminal epithelial cells]” value was “very high” under setting [1], “very low” under setting [2] and “absent” under setting [3].
